Reference: the supplement of paper PMC11061612

Key:
Assay in all cases: Bliss excess, mean over the matrix (fraction); higher = more synergy
[1] = test system: MEL-JUSO (Melanoma)
Procedure, shortened: (§1)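 After 24 hours at 37°C and 5% CO2 in 1536-well plates, cells in DMEM/F12 or RPMI plus 10% FBS received two-drug dose matrices for 72 hours. Viability came from CellTiter-Glo 2.0 luminescence and was scaled as inhibition, anchored at 0 by vehicle wells and at 1 by blank wells. Combination Emax is taken as the second-highest inhibition in the matrix, and Bliss excess as the observed combination effect less EA + EB − EA·EB, with EA and EB the single-agent effects.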

[2] = test system: WIL2-NS (Non-Cancerous)
Procedure, shortened: as §1

[3] = test system: K-562 (Chronic Myelogenous Leukemia)
Procedure, shortened: as §1

[4] = test system: BFTC-905 (Bladder Carcinoma)
Procedure, shortened: as §1

[5] = test system: TOV-112D (Ovarian Carcinoma)
Procedure, shortened: as §1

[6] = test system: KARPAS-45 (T-Lymphoblastic Leukemia)
Procedure, shortened: as §1

[7] = test system: L-540 (Hodgkin's Lymphoma)
Procedure, shortened: as §1

[8] = test system: DND-41 (T-Lymphoblastic Leukemia)
Procedure, shortened: as §1

[9] = test system: HDQ-P1 (Breast Carcinoma)
Procedure, shortened: as §1

[10] = test system: SW1417 (Colorectal Carcinoma)
Procedure, shortened: as §1

[11] = test system: TC-71 (Ewing's Sarcoma)
Procedure, shortened: as §1

[12] = test system: CAMA-1 (Breast Carcinoma)
Procedure, shortened: as §1

[13] = test system: MKN28 (Gastric Carcinoma)
Procedure, shortened: as §1

[14] = test system: EVSA-T (Breast Carcinoma)
Procedure, shortened: as §1

[15] = test system: NCI-H1792 (Lung Adenocarcinoma)
Procedure, shortened: as §1

[16] = test system: GR-ST (B-Lymphoblastic Leukemia)
Procedure, shortened: as §1

[17] = test system: KM12 (Colorectal Carcinoma)
Procedure, shortened: as §1

[18] = test system: SW837 (Colorectal Carcinoma)
Procedure, shortened: as §1

[19] = test system: TE-6 (Esophageal Squamous Cell Carcinoma)
Procedure, shortened: as §1

SMILES	Bliss excess [1]	Bliss excess [2]	Bliss excess [3]	Bliss excess [4]	Bliss excess [5]	Bliss excess [6]	Bliss excess [7]	Bliss excess [8]	Bliss excess [9]	Bliss excess [10]	Bliss excess [11]	Bliss excess [12]	Bliss excess [13]	Bliss excess [14]	Bliss excess [15]	Bliss excess [16]	Bliss excess [17]	Bliss excess [18]	Bliss excess [19]
C[C@@H](c1ccc2nccn2c1)n1nnc2ncc(-c3cnn(C)c3)nc21 [Savolitinib] + CC1(C)CCC(CN2CCN(c3ccc(C(=O)NS(=O)(=O)c4ccc(NCC5CCOCC5)c([N+](=O)[O-])c4)c(Oc4cnc5[nH]ccc5c4)c3)CC2)=C(c2ccc(Cl)cc2)C1 [Venetoclax] (first compound max 1 µM, 7x7, partner max 1 µM)	-0.0919	-0.0285	-0.0187	-0.0416	-0.0489	-0.017	0.0201	-0.0082	-0.085	-0.0509	-0.0517	-0.0211	-0.0464	-0.0269	-0.0597	-0.0073	-0.0559	-0.0813	-0.0559
Cc1nc(Nc2ncc(C(=O)Nc3c(C)cccc3Cl)s2)cc(N2CCN(CCO)CC2)n1 [Dasatinib] + CC(=O)Nc1cccc(-n2c(=O)n(C3CC3)c(=O)c3c(Nc4ccc(I)cc4F)n(C)c(=O)c(C)c32)c1 [Trametinib] (first compound max 2 µM, 7x7, partner max 1 µM)	-0.0878	0.133	-0.0956	0.0926	0.0773	0.0017	-0.0484	-0.0333	-0.0033	0.131	-0.0333	-0.0382	0.0027	-0.0361	0.0422	0.0189	-0.108	0.0448	-0.0255
Cn1cnc2c(F)c(Nc3ccc(Br)cc3Cl)c(C(=O)NOCCO)cc21 [Selumetinib] + C=CCn1c(=O)c2cnc(Nc3ccc(N4CCN(C)CC4)cc3)nc2n1-c1cccc(C(C)(C)O)n1 [AZD1775] (first compound max 10 µM, partner max 1 µM)	-0.0388	0.0363	0.0752	-0.0654	-0.0497	0.0001	-0.0374	-0.0248	-0.0453	0.0387	-0.039	-0.0309	-0.0192	-0.015	-0.0647	-0.0368	-0.0672	-0.0207	0.0165
COc1nnc2ccc(N3CCC(c4ccc(OCCN5CCN(C)C(=O)[C@H]5C)cc4)CC3)nn12 [AZD5153] + Cc1c2c(nn1C)CSCc1cc(n(C)n1)CSc1cc(c3ccccc3c1)OCCCc1c(C(=O)O)n(C)c3c-2c(Cl)ccc13 [AZD5991] (first compound max 1 µM, 7x7, partner max 1 µM)	-0.0507	-0.0255	-0.0496	-0.0056	0.0347	0.0139	0.0062	0.0181	-0.0667	-0.0252	0.0285	0.0283	-0.0235	0.003	-0.0008	-0.027	-0.0473	-0.0411	-0.0701
NC1(C(=O)N[C@@H](CCO)c2ccc(Cl)cc2)CCN(c2ncnc3[nH]ccc23)CC1 [Capivasertib] + CC(=O)c1c(C)c2cnc(Nc3ccc(N4CCNCC4)cn3)nc2n(C2CCCC2)c1=O [Palbociclib] (first compound max 10 µM, 7x7, partner max 10 µM)	-0.0137	-0.0049	0.0122	0.0048	0.0029	0.0327	-0.0243	-0.0146	-0.0092	0.0067	0.0341	0.052	-0.0459	0.0168	0.0419	-0.0067	0.0176	-0.0531	-0.0195
CC(=O)c1c(C)c2cnc(Nc3ccc(N4CCNCC4)cn3)nc2n(C2CCCC2)c1=O [Palbociclib] + Cn1cnc2c(F)c(Nc3ccc(Br)cc3Cl)c(C(=O)NOCCO)cc21 [Selumetinib] (first compound max 10 µM, 7x7, partner max 10 µM)	0.0028	-0.0133	0.0221	0.0595	0.068	0.0636	-0.071	0.0601	-0.0555	-0.0094	-0.012	-0.027	0.0275	-0.0035	0.119	0.0333	0.0039	0.0075	0.0172
Cn1cnc2c(F)c(Nc3ccc(Br)cc3Cl)c(C(=O)NOCCO)cc21 [Selumetinib] + C[C@@H]1COCCN1C2=NC(=NC(=C2)C3(CC3)[S@](=N)(=O)C)C4=C5C=CNC5=NC=C4 [AZD6738] (first compound max 10 µM, 7x7, partner max 10 µM)	0.0935	-0.033	-0.0116	-0.0351	-0.0377	0.0047	-0.0415	-0.0233	0.0228	0.0363	-0.022	-0.0506	-0.0316	-0.0377	-0.0049	-0.0301	0.0286	-0.095	0.0221
C[C@@H](c1ccc2nccn2c1)n1nnc2ncc(-c3cnn(C)c3)nc21 [Savolitinib] + Cc1c2c(nn1C)CSCc1cc(n(C)n1)CSc1cc(c3ccccc3c1)OCCCc1c(C(=O)O)n(C)c3c-2c(Cl)ccc13 [AZD5991] (first compound max 1 µM, 7x7, partner max 1 µM)	-0.0269	-0.0262	0.0145	-0.0523	-0.0242	-0.0264	-0.0054	-0.0188	-0.0456	-0.0228	-0.021	-0.0136	-0.045	-0.0233	-0.0279	-0.037	-0.0256	-0.0644	-0.0541
COc1nnc2ccc(N3CCC(c4ccc(OCCN5CCN(C)C(=O)[C@H]5C)cc4)CC3)nn12 [AZD5153] + CC1(C)CCC(CN2CCN(c3ccc(C(=O)NS(=O)(=O)c4ccc(NCC5CCOCC5)c([N+](=O)[O-])c4)c(Oc4cnc5[nH]ccc5c4)c3)CC2)=C(c2ccc(Cl)cc2)C1 [Venetoclax] (first compound max 1 µM, 7x7, partner max 1 µM)	-0.0547	-0.0495	-0.0494	-0.0577	-0.0474	0.0433	-0.0012	0.0352	-0.0307	-0.0485	-0.0443	-0.0564	-0.0251	-0.0008	-0.0215	-0.0399	-0.0571	-0.0514	-0.103
NC1(C(=O)N[C@@H](CCO)c2ccc(Cl)cc2)CCN(c2ncnc3[nH]ccc23)CC1 [Capivasertib] + COc1nnc2ccc(N3CCC(c4ccc(OCCN5CCN(C)C(=O)[C@H]5C)cc4)CC3)nn12 [AZD5153] (first compound max 10 µM, 7x7, partner max 1 µM)	-0.0049	-0.0933	0.0061	-0.0346	0.0088	0.0133	-0.0794	0.0339	0.0651	-0.0135	0.0228	0.106	-0.0075	-0.033	0.0039	-0.0565	0.0143	-0.0301	-0.0708
NC1(C(=O)N[C@@H](CCO)c2ccc(Cl)cc2)CCN(c2ncnc3[nH]ccc23)CC1 [Capivasertib] + C[C@@H]1COCCN1C2=NC(=NC(=C2)C3(CC3)[S@](=N)(=O)C)C4=C5C=CNC5=NC=C4 [AZD6738] (first compound max 10 µM, 7x7, partner max 10 µM)	0.0083	-0.0529	-0.0383	-0.0391	-0.0632	-0.0238	-0.0059	-0.0221	-0.0178	-0.0282	0.0295	-0.0149	-0.0459	0.0185	-0.0208	-0.035	0.0297	-0.0862	-0.0476
NC1(C(=O)N[C@@H](CCO)c2ccc(Cl)cc2)CCN(c2ncnc3[nH]ccc23)CC1 [Capivasertib] + CCN(CCO)CCCOc1ccc2c(Nc3cc(CC(=O)Nc4cccc(F)c4)[nH]n3)ncnc2c1 [AZD2811] (first compound max 10 µM, 7x7, partner max 1 µM)	-0.0083	-0.0431	-0.0151	-0.0462	0.0175	-0.0426	0.0547	0.0071	-0.0077	-0.0478	-0.0573	0.0051	0.0119	0.0219	-0.0079	0.0222	-0.0303	-0.0646	-0.0003
COc1cc2ncnc(Nc3ccc(F)c(Cl)c3)c2cc1OCCCN1CCOCC1 [Gefitinib] + CC(C)n1c(=O)n(C)c2cnc3cc(F)c(-c4ccc(OCCCN5CCCCC5)nc4)cc3c21 [AZD1390] (first compound max 10 µM, 7x7, partner max 0.3 µM)	-0.0857	-0.0241	-0.0304	-0.0821	-0.0392	-0.0543	-0.0591	-0.0309	-0.114	-0.0456	-0.0927	-0.0434	-0.0498	-0.0306	-0.0422	-0.0303	-0.0406	-0.06	-0.117
C[C@@H](c1ccc2nccn2c1)n1nnc2ncc(-c3cnn(C)c3)nc21 [Savolitinib] + CN(CC[C@H](CSC1=CC=CC=C1)NC2=C(C=C(C=C2)S(=O)(=O)NC(=O)C3=CC=C(C=C3)N4CCC(CC4)[C@H](C5=CC=CC=C5C6=CC=C(C=C6)Cl)O)S(=O)(=O)C(F)(F)F)CCO [AZD4320] (first compound max 1 µM, 7x7, partner max 1 µM)	-0.0487				-0.0414	-0.0289			-0.0432		-0.0266			0.0099			-0.0156		-0.0312
CC(=O)c1c(C)c2cnc(Nc3ccc(N4CCNCC4)cn3)nc2n(C2CCCC2)c1=O [Palbociclib] + CN(CC[C@H](CSC1=CC=CC=C1)NC2=C(C=C(C=C2)S(=O)(=O)NC(=O)C3=CC=C(C=C3)N4CCC(CC4)[C@H](C5=CC=CC=C5C6=CC=C(C=C6)Cl)O)S(=O)(=O)C(F)(F)F)CCO [AZD4320] (first compound max 10 µM, 7x7, partner max 1 µM)	-0.099				-0.0002	-0.0035			-0.0735		-0.0326			-0.0631			-0.0377		-0.0596
